In US5177082A, “Huperzines and analogs” (priority 1990, dated 1993):
Where two headings read alike, the source gives them in different places.

Columns and labels:
true cholinesterase = true cholinesterase (Rattus norvegicus, UniProt P37136)
[1] = Tissue distribution of 3H-Huperzine A radioactivity, iv; assay type: in vivo, rat
Method: After giving 250 μCi/kg by iv injections of ^3 H-Huperzine A to the rats, they were sacrificed at different times by bloodletting and the radioactivity contents of the organs were measured.

[2] = Plasma protein binding by equilibrium dialysis; assay type: in vitro ADME; conditions: mouse, plasma of normal mice
Source text: Using equilibrium dialysis, it could be shown that the protein binding of ^3 H-Huperzine A in the plasma of normal mice was 17.2±4.1%.

[3] = Excretion of 3H-Huperzine A after a single dose; assay type: in vivo
[4] = iv 375 μCi/kg, rat blood
in vivo = conditions: rat, iv; for k el / Vd / half-life: rat blood
[5] = seven days after a single dose, 10080 min

true cholinesterase, sequence (P37136-2 with tags, fused parts or gaps limits assumed): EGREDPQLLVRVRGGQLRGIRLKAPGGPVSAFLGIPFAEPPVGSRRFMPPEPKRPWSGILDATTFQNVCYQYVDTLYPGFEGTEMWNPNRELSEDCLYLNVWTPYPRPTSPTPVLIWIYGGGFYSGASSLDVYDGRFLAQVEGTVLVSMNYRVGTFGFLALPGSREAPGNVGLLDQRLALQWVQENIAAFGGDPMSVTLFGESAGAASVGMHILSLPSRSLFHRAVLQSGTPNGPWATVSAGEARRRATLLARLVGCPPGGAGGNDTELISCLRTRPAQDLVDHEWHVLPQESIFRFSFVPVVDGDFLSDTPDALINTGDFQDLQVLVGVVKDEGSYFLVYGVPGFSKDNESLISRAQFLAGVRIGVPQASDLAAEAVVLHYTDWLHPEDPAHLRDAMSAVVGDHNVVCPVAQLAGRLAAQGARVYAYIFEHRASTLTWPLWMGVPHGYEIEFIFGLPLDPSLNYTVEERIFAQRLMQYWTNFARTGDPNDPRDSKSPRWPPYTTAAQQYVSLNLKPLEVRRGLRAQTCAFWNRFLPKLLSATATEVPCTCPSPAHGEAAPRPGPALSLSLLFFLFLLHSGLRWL

SMILES: C[N+](C)(C)CCO.[Cl-] [choline chloride]
- inhibition vs time response (true cholinesterase): The same response was noted

SMILES: C/C=C1\[C@H]2C=C(C)C[C@]1(N)c1ccc(=O)[nH]c1C2 [3H-Huperzine A]
- radioactivity contents of the organs ([1]; 15 minutes after 250 μCi/kg iv): the kidney and liver had the highest contents, the lungs, spleen and heart had less and the fat and brain had the least
- radioactivity in every organ examined ([1]; after twenty-four hours): only a minute quantity of radioactivity
- brain distribution / blood-brain barrier ([1]; rat, in vivo): can pass the blood-brain barrier
- radioactivity contents of the organs ([1]; twelve hours after 250 μCi/kg iv): the radioactivity in each tissue was close to zero
- radioactivity contents of the organs ([1]; two hours after 250 μCi/kg iv): the radioactivity in the other tissues was markedly lower while that in the brain rose slightly
- fraction unbound [2]: 0.828
- eliminated in the urine [3, 5]: 86.1%
- eliminated through feces [3, 5]: 5.5%
- excreted drug appearing within twenty-four hours (urine) ([3]; within twenty-four hours, 1440 min): 84.9%
- K12 [4]: 0.0778
- K21 [4]: 0.0366
- phase rate constant α [4]: 0.129 min⁻¹
- time of peak radioactivity in blood (ig 375 μCi/kg, fasted 14 hours): 45 to 60 min
- radioactivity in the blood (seven hours after ig): still relatively high
- radioactivity in the blood (twenty minutes after ig): had risen noticeably
- clearance (in vivo): 21.2 mL/min/kg
- k el (in vivo; K10, iv 375 μCi/kg): 0.00034 s⁻¹
- Vd (in vivo; Vc, iv 375 μCi/kg): 1.04 L/kg
- Vd (in vivo; Vd, iv 375 μCi/kg): 3.66 L/kg
- k el (in vivo; phase rate constant β, iv 375 μCi/kg): 9.67e-05 s⁻¹
- half-life (in vivo; t1/2α, iv 375 μCi/kg): 0.09 h
- half-life (in vivo; t1/2β, iv 375 μCi/kg): 1.99 h
